Assay results reported in patent publication US12162890B2 (Novartis AG, priority 2015, dated 2024).

Target: HEK293 cells with stable expression of the GRIN1 gene and tetracycline-inducible expression of the GRIN2B gene (NMDA receptor, NR2B) (Homo sapiens, UniProt Q13224)
Test: Fluo-8 Ca2+ flux assay: reversal of Ro 25-6981-mediated suppression of the Ca2+ response to co-agonist (glutamate/glycine); further: test concentration or dose not given here
Type: cell-based
Conditions: reversal of the Ro 25-6981 suppression of the Ca2+ response to co-agonist (glutamate/glycine)

HEK293 cells with stable expression of the GRIN1 gene and tetracycline-inducible expression of the GRIN2B gene (NMDA receptor, NR2B), sequence (Q13224 27-1484, other chains not shown): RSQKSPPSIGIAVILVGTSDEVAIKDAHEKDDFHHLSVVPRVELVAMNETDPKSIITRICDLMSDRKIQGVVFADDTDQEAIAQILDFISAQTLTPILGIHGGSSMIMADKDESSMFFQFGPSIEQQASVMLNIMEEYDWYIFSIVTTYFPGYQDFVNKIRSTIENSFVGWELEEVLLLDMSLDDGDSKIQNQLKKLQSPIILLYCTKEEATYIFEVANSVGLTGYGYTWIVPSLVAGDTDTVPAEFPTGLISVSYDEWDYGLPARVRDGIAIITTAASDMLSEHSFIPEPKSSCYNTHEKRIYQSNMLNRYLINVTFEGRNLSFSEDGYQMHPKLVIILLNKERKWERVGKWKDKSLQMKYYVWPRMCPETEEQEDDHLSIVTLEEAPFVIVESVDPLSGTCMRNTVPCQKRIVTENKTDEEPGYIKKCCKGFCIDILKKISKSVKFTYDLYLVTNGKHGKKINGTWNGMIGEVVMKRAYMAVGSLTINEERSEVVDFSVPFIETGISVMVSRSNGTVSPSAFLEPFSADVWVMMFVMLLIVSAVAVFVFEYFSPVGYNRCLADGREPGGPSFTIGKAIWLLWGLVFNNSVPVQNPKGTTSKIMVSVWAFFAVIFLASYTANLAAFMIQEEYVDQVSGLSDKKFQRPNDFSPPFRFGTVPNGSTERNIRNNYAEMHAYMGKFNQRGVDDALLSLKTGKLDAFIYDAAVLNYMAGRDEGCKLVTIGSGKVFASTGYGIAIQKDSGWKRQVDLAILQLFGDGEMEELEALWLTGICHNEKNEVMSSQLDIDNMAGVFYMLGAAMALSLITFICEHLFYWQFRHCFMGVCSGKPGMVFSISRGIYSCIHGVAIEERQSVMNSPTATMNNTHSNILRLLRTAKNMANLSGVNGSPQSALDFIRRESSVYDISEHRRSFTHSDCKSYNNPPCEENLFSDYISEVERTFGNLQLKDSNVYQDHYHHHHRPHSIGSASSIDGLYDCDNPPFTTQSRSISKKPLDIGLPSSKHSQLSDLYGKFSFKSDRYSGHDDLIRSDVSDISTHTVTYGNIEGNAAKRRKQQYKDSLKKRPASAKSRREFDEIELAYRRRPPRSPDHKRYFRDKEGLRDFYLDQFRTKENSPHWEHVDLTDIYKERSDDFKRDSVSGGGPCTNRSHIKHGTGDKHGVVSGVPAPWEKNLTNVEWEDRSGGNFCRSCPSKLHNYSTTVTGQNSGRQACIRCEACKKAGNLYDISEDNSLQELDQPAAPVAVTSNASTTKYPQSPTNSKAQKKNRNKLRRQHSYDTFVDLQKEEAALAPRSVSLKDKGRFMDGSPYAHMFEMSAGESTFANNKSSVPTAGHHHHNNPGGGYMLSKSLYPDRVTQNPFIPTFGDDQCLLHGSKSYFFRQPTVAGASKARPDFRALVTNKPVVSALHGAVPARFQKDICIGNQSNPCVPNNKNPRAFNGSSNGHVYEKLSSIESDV

Row | SMILES | Response Recovered (%)
1 | O=C(Cn1cnc2onc(-c3ccc(Cl)cc3)c2c1=O)N1CCCC1 [Example 383, 3-(4-chlorophenyl)-5-(2-oxo-2-(pyrrolidin-1-yl)ethyl)isoxazolo[5,4-d]pyrimidin-4(5H)-one] | 1
2 | O=C(Cn1cnc2csc(-c3ccc(C(F)(F)F)cc3)c2c1=O)N1CC(F)(F)C1 [Example 358, 3-(2-(3,3-difluoroazetidin-1-yl)-2-oxoethyl)-5-(4-(trifluoromethyl)phenyl)thieno[3,4-d]pyrimidin-4(3H)-one] | 12
3 | Cc1cn(CC(=O)N2CC(C)(F)C2)c(=O)c2c(-c3ccc(F)c(Cl)c3)ccn12 [Example 416, 8-(3-chloro-4-fluorophenyl)-2-(2-(3-fluoro-3-methylazetidin-1-yl)-2-oxoethyl)-4-methylpyrrolo[1,2-a]pyrazin-1(2H)-one] | 110
4 | N#Cc1cn(CC(=O)N2CCCC2)c(=O)c2c(-c3ccc(F)c(C(F)(F)F)c3)csc12 [Example 100, 3-(4-fluoro-3-(trifluoromethyl)phenyl)-4-oxo-5-(2-oxo-2-(pyrrolidin-1-yl)ethyl)-4,5-dihydrothieno[3,2-c]pyridine-7-carbonitrile] | 34
5 | C[Si](C)(C)CCOCn1cc(-c2ccc(Cl)c(F)c2)c2c(=O)n(CC(=O)N3CCC(F)C3)ccc21 (stereo not drawn) [Example 202, 3-(4-chloro-3-fluorophenyl)-5-(2-(3-fluoropyrrolidin-1-yl)-2-oxoethyl)-1-((2-(trimethylsilyl)ethoxy)methyl)-1H-pyrrolo[3,2-c]pyridin-4(5H)-one] | 32
6 | COC1CN(C(=O)Cn2cnc3ccn(-c4ccc(Cl)cc4)c3c2=O)C1 [Example 372, 5-(4-chlorophenyl)-3-(2-(3-methoxyazetidin-1-yl)-2-oxoethyl)-3H-pyrrolo[3,2-d]pyrimidin-4(5H)-one] | 1
7 | O=C(Cn1ccc2scc(-c3ccc(Cl)c(Cl)c3)c2c1=O)N1C[C@@H](F)[C@@H](F)C1 [Example 16, 3-(3,4-dichlorophenyl)-5-(2-((3S,4R)-3,4-difluoropyrrolidin-1-yl)-2-oxoethyl)thieno[3,2-c]pyridin-4(5H)-one] | 107
8 | O=C(Cn1ccc2c(c(-c3ccc(Cl)c(Cl)c3)cn2-c2ccccn2)c1=O)N1CCC(F)C1 (stereo not drawn) [Example 229, 3-(3,4-dichlorophenyl)-5-(2-(3-fluoropyrrolidin-1-yl)-2-oxoethyl)-1-(pyridin-2-yl)-1H-pyrrolo[3,2-c]pyridin-4(5H)-one] | 78
9 | O=C(Cn1ccc2scc(-c3ccc(Cl)c(F)c3)c2c1=O)N1CCCC1 [Example 2, 3-(4-chloro-3-fluorophenyl)-5-(2-oxo-2-(pyrrolidin-1-yl)ethyl)thieno[3,2-c]pyridin-4(5H)-one] | 34
10 | O=C(Cn1ccc2scc(-c3ccc(Cl)c(Cl)c3)c2c1=O)N1CC(F)C1 [Example 33, 3-(3,4-dichlorophenyl)-5-(2-(3-fluoroazetidin-1-yl)-2-oxoethyl)thieno[3,2-c]pyridin-4(5H)-one] | 54
11 | Cc1cc(-c2csc3ccn(CC(=O)N4CC(F)(CF)C4)c(=O)c23)cnc1F [Example 89, 5-(2-(3-fluoro-3-(fluoromethyl)azetidin-1-yl)-2-oxoethyl)-3-(6-fluoro-5-methylpyridin-3-yl)thieno[3,2-c]pyridin-4(5H)-one] | 16
12 | O=C(Cn1cnc2[nH]cc(-c3ccc(F)c(C(F)(F)F)c3)c2c1=O)N1CCC(F)C1 (stereo not drawn) [Example 174, 5-(4-fluoro-3-(trifluoromethyl)phenyl)-3-(2-(3-fluoropyrrolidin-1-yl)-2-oxoethyl)-3H-pyrrolo[2,3-d]pyrimidin-4(7H)-one] | 91
13 | COCCn1cc(-c2ccc(F)c(Cl)c2)c2c(=O)n(CC(=O)N3CCCC3)cnc21 [Example 186, 5-(3-chloro-4-fluorophenyl)-7-(2-methoxyethyl)-3-(2-oxo-2-(pyrrolidin-1-yl)ethyl)-3H-pyrrolo[2,3-d]pyrimidin-4(7H)-one] | 18
14 | Cc1cn(CC(=O)N2CCC(F)C2)c(=O)c2c(-c3ccc(Cl)c(Cl)c3)ccn12 (stereo not drawn) [Example 413, 8-(3,4-dichlorophenyl)-2-(2-(3-fluoropyrrolidin-1-yl)-2-oxoethyl)-4-methylpyrrolo[1,2-a]pyrazin-1(2H)-one] | 43
15 | O=C(Cn1ccc2scc(-c3cnc(Cl)c(C(F)(F)F)c3)c2c1=O)N1CC(F)C(F)C1 (stereo not drawn) [Example 36, 3-(6-chloro-5-(trifluoromethyl)pyri-din-3-yl)-5-(2-(3,4-difluoropyrrolidin-1-yl)-2-oxoethyl)thieno[3,2-c]pyridin-4(5H)-one] | 54
16 | C/C(=N/O)c1cn(CC(=O)N2CCC(F)C2)c(=O)c2c(-c3ccc(F)c(C(F)(F)F)c3)csc12 (stereo not drawn) [Example 135, (Z)-3-(4-fluoro-3-(trifluoromethyl)phenyl)-5-(2-(3-fluoropyrrolidin-1-yl)-2-oxoethyl)-7-(1-(hydroxyimino)ethyl)thieno[3,2-c]pyridin-4(5H)-one] | 11
17 | O=C(Cn1cnc2[nH]cc(-c3ccc(F)c(Cl)c3)c2c1=O)N1CCCC1 [Example 156, 5-(3-chloro-4-fluorophenyl)-3-(2-oxo-2-(pyrrolidin-1-yl)ethyl)-3H-pyrrolo[2,3-d]pyrimidin-4(7H)-one] | 36

Row | SMILES | Response Recovered (%)
18 | O=C(Cn1ccc2scc(-c3ccc(Cl)c(Cl)c3)c2c1=O)N1CC2(CC2)C1 [Example 78, 3-(3,4-dichlorophenyl)-5-(2-oxo-2-(5-azaspiro[2.3]hexan-5-yl)ethyl)thieno[3,2-c]pyridin-4(5H)-one] | 53
19 | COC1(C)CN(C(=O)Cn2ccc3scc(-c4ccc(Cl)c(Cl)c4)c3c2=O)C1 [Example 63, 3-(3,4-dichlorophenyl)-5-(2-(3-methoxy-3-methylazetidin-1-yl)-2-oxoethyl)thieno[3,2-c]pyridin-4(5H)-one] | 16
20 | O=C(Cn1ncc2scc(-c3ccc(Cl)c(C(F)(F)F)c3)c2c1=O)N1CC(F)(F)C1 [Example 339, 3-(4-chloro-3-(trifluoromethyl)phenyl)-5-(2-(3,3-difluoroazetidin-1-yl)-2-oxoethyl)thieno[2,3-d]pyridazin-4(5H)-one] | 20
21 | O=C(Cn1ccn2ncc(-c3ccc(F)c(C(F)(F)F)c3)c2c1=O)N1CC(F)C1 [Example 322, 3-(4-fluoro-3-(trifluoromethyl)phenyl)-5-(2-(3-fluoroazetidin-1-yl)-2-oxoethyl)pyrazolo[1,5-a]pyrazin-4(5H)-one] | 33
22 | CN(C)CCn1cc(-c2ccc(F)c(Cl)c2)c2c(=O)n(CC(=O)N3CCC(F)C3)ccc21 (stereo not drawn) [Example 245, 3-(3-chloro-4-fluorophenyl)-1-(2-(dimethylamino)ethyl)-5-(2-(3-fluoropyrrolidin-1-yl)-2-oxoethyl)-1H-pyrrolo[3,2-c]pyridin-4(5H)-one] | 14
23 | NC(=O)Cn1ccc2[nH]cc(-c3ccc(F)c(Cl)c3)c2c1=O [Example 255, 2-(3-(3-chloro-4-fluorophenyl)-4-oxo-1H-pyrrolo[3,2-c]pyridin-5(4H)-yl)acetamide] | −1
24 | O=C(Cn1ccc2scc(-c3ccc(F)c(Cl)c3)c2c1=O)N1CC[C@H](F)C1 [Example 40, (S)-3-(3-chloro-4-fluorophenyl)-5-(2-(3-fluoropyrrolidin-1-yl)-2-oxoethyl)thieno[3,2-c]pyridin-4(5H)-one] | 46
25 | O=C(Cn1ccc2c(c(-c3ccc(F)c(C(F)(F)F)c3)cn2C2CC2)c1=O)N1CCC(F)C1 (stereo not drawn) [Example 231, 1-cyclopropyl-3-(4-fluoro-3-(trifluoromethyl)phenyl)-5-(2-(3-fluoropyrrolidin-1-yl)-2-oxoethyl)-1H-pyrrolo[3,2-c]pyridin-4(5H)-one] | 90
26 | O=C(Cn1cnc2csc(-c3ccc(Cl)c(F)c3)c2c1=O)N1CC(F)(F)C1 [Example 363, 5-(4-chloro-3-fluorophenyl)-3-(2-(3,3-difluoroazetidin-1-yl)-2-oxoethyl)thieno[3,4-d]pyrimidin-4(3H)-one] | 16
27 | O=C(Cn1ccn2c(C3CC3)nc(-c3ccc(F)c(C(F)(F)F)c3)c2c1=O)N1CCC(F)C1 (stereo not drawn) [Example 434, 3-cyclopropyl-1-(4-fluoro-3-(trifluoromethyl)phenyl)-7-(2-(3-fluoropyrrolidin-1-yl)-2-oxoethyl)imidazo[1,5-a]pyrazin-8(7H)-one] | 40
28 | CCC1(F)CN(C(=O)Cn2ccc3c(c(-c4cnc(Cl)c(Cl)c4)cn3C3CC3)c2=O)C1 [Example 294, 1-cyclopropyl-3-(5,6-dichloropyridin-3-yl)-5-(2-(3-ethyl-3-fluoroazetidin-1-yl)-2-oxoethyl)-1,5-dihydro-4H-pyrrolo[3,2-c]pyridin-4-one] | 88
29 | O=C(Cn1cnc2[nH]cc(-c3ccc(Cl)c(C(F)(F)F)c3)c2c1=O)N1C[C@@H](F)[C@@H](F)C1 [Example 181] | 69
30 | COC1(C)CN(C(=O)Cn2ccc3scc(-c4ccc(F)c(Cl)c4)c3c2=O)C1 [Example 62, 3-(3-chloro-4-fluorophenyl)-5-(2-(3-methoxy-3-methylazetidin-1-yl)-2-oxoethyl)thieno[3,2-c]pyridin-4(5H)-one] | 11
31 | CCC1(F)CN(C(=O)Cn2ccc3scc(-c4cnc(C#N)c(Cl)c4)c3c2=O)C1 [Example 137, 3-chloro-5-(5-(2-(3-ethyl-3-fluoroazetidin-1-yl)-2-oxoethyl)-4-oxo-4,5-dihydrothieno[3,2-c]pyridin-3-yl)picolinonitrile] | 22
32 | CC1(F)CN(C(=O)Cn2ccn3ccc(-c4ccc(F)c(C(F)(F)F)c4)c3c2=O)C1 [Example 401, 8-(4-fluoro-3-(trifluoromethyl)phenyl)-2-(2-(3-fluoro-3-methylazetidin-1-yl)-2-oxoethyl)pyrrolo[1,2-a]pyrazin-1(2H)-one] | 160
33 | O=C(Cn1ncc2scc(-c3ccc(Cl)c(F)c3)c2c1=O)N1CCCC1 [Example 336, 3-(4-chloro-3-fluorophenyl)-5-(2-oxo-2-(pyrrolidin-1-yl)ethyl)thieno[2,3-d]pyridazin-4(5H)-one] | 3
